Source: ChEMBL document CHEMBL4819123, “Pulchinenosides: Correlation of surface activity-cytotoxicity and hepatocyte apoptosis mechanism study” (Bioorg Med Chem Lett, 2021)

Assays:
L02 [1] = test: Induction of apoptosis in human L02 cells assessed as early apoptotic cells at 6 uM by annexin-V-FITC/PI staining based flow cytometry analysis (reference value: 3.81 %); assay type: cell-based; details: l02, 6 µM
L02 [2] = test: Induction of cell cycle arrest in human L02 cells assessed as G0/G1 phase accumulation at 8 uM by PI staining based flow cytometry analysis (reference value: 53.77 %); details: l02, 8 µM
L02 [3] = test: Induction of cell cycle arrest in human L02 cells assessed as S phase accumulation at 8 uM by PI staining based flow cytometry analysis (reference value: 38.23 %); details: l02, 8 µM
L02 [4] = test: Induction of cell cycle arrest in human L02 cells assessed as G2/M phase accumulation at 8 uM by PI staining based flow cytometry analysis (reference value: 8 %); details: l02, 8 µM
L02 [5] = test: Induction of cell cycle arrest in human L02 cells assessed as S phase accumulation at 10 uM by PI staining based flow cytometry analysis (reference value: 38.23 %); details: l02, 10 µM
L02 [6] = test: Cytotoxicity against human L02 cells assessed as increase in LDH leakage by LDH assay; assay type: cell-based
L02 [7] = test: Induction of apoptosis in human L02 cells assessed as late apoptotic cells at 10 uM by annexin-V-FITC/PI staining based flow cytometry analysis (reference value: 0.92 %); assay type: cell-based; details: l02, 10 µM
[8] = Oil-water partition coefficient, logP of compound; assay type: physicochemical
L02 [9] = test: Induction of cell cycle arrest in human L02 cells assessed as G2/M phase accumulation at 10 uM by PI staining based flow cytometry analysis (reference value: 8 %); details: l02, 10 µM
L02 [10] = test: Induction of cell cycle arrest in human L02 cells assessed as G0/G1 phase accumulation at 10 uM by PI staining based flow cytometry analysis (reference value: 53.77 %); details: l02, 10 µM
L02 [11] = test: Induction of cell cycle arrest in human L02 cells assessed as G0/G1 phase accumulation at 6 uM by PI staining based flow cytometry analysis (reference value: 53.77 %); details: l02, 6 µM
L02 [12] = test: Induction of apoptosis in human L02 cells assessed as early apoptotic cells at 10 uM by annexin-V-FITC/PI staining based flow cytometry analysis (reference value: 3.81 %); assay type: cell-based; details: l02, 10 µM
L02 [13] = test: Induction of apoptosis in human L02 cells assessed as late apoptotic cells at 6 uM by annexin-V-FITC/PI staining based flow cytometry analysis (reference value: 0.92 %); assay type: cell-based; details: l02, 6 µM
L02 [14] = test: Cytotoxicity against human L02 cells by MTT assay; assay type: cell-based
L02 [15] = test: Induction of cell cycle arrest in human L02 cells assessed as S phase accumulation at 6 uM by PI staining based flow cytometry analysis (reference value: 38.23 %); details: l02, 6 µM
L02 [16] = test: Induction of apoptosis in human L02 cells assessed as late apoptotic cells at 8 uM by annexin-V-FITC/PI staining based flow cytometry analysis (reference value: 0.92 %); assay type: cell-based; details: l02, 8 µM
[17] = Hemolytic activity in rabbit erythrocytes; assay type: ADME, cell-based, Oryctolagus cuniculus, Erythrocyte; details: read-out: HD50 (the source's name)
L02 [18] = test: Induction of apoptosis in human L02 cells assessed as early apoptotic cells at 8 uM by annexin-V-FITC/PI staining based flow cytometry analysis (reference value: 3.81 %); assay type: cell-based; details: l02, 8 µM
L02 [19] = test: Induction of cell cycle arrest in human L02 cells assessed as G2/M phase accumulation at 6 uM by PI staining based flow cytometry analysis (reference value: 8 %); details: l02, 6 µM
L02 [20] = test: Induction of apoptosis in human L02 cells assessed as decrease in caspase 9 level at 8 to 12 ug/ml measured after 24 hrs by Western blot analysis; assay type: cell-based; details: l02, 24 h, dose 8-12 µg/ml
L02 [21] = test: Induction of apoptosis in human L02 cells assessed as increase in cleaved caspase 8 level at 8 to 12 ug/ml measured after 24 hrs by Western blot analysis; assay type: cell-based; details: l02, 24 h, dose 8-12 µg/ml
L02 [22] = test: Induction of apoptosis in human L02 cells assessed as upregulation of FAS expression at 8 to 12 ug/ml measured after 24 hrs by Western blot analysis; assay type: cell-based; details: l02, 24 h, dose 8-12 µg/ml
L02 [23] = test: Induction of apoptosis in human L02 cells assessed as decrease in ratio of Bcl-2/Bax at 8 to 12 ug/ml measured after 24 hrs by Western blot analysis; assay type: cell-based; details: l02, 24 h, dose 8-12 µg/ml
L02 [24] = test: Induction of apoptosis in human L02 cells assessed as decrease in caspase 8 level at 8 to 12 ug/ml measured after 24 hrs by Western blot analysis; assay type: cell-based; details: l02, 24 h, dose 8-12 µg/ml
L02 [25] = test: Induction of cell cycle arrest in human L02 cells assessed as S phase accumulation at 18 uM by PI staining based flow cytometry analysis (reference value: 38.23 %); details: l02, 18 µM
L02 [26] = test: Induction of cell cycle arrest in human L02 cells assessed as G0/G1 phase accumulation at 24 uM by PI staining based flow cytometry analysis (reference value: 53.77 %); details: l02, 24 µM
L02 [27] = test: Induction of cell cycle arrest in human L02 cells assessed as S phase accumulation at 26 uM by PI staining based flow cytometry analysis (reference value: 38.23 %); details: l02, 26 µM
L02 [28] = test: Induction of cell cycle arrest in human L02 cells assessed as G2/M phase accumulation at 24 uM by PI staining based flow cytometry analysis (reference value: 8 %); details: l02, 24 µM
L02 [29] = test: Induction of apoptosis in human L02 cells assessed as early apoptotic cells at 18 uM by annexin-V-FITC/PI staining based flow cytometry analysis (reference value: 3.81 %); assay type: cell-based; details: l02, 18 µM
L02 [30] = test: Induction of cell cycle arrest in human L02 cells assessed as G2/M phase accumulation at 18 uM by PI staining based flow cytometry analysis (reference value: 8 %); details: l02, 18 µM
L02 [31] = test: Induction of cell cycle arrest in human L02 cells assessed as G2/M phase accumulation at 26 uM by PI staining based flow cytometry analysis (reference value: 8 %); details: l02, 26 µM
L02 [32] = test: Induction of apoptosis in human L02 cells assessed as late apoptotic cells at 24 uM by annexin-V-FITC/PI staining based flow cytometry analysis (reference value: 0.92 %); assay type: cell-based; details: l02, 24 µM
L02 [33] = test: Induction of apoptosis in human L02 cells assessed as late apoptotic cells at 26 uM by annexin-V-FITC/PI staining based flow cytometry analysis (reference value: 0.92 %); assay type: cell-based; details: l02, 26 µM
L02 [34] = test: Induction of apoptosis in human L02 cells assessed as early apoptotic cells at 24 uM by annexin-V-FITC/PI staining based flow cytometry analysis (reference value: 3.81 %); assay type: cell-based; details: l02, 24 µM
L02 [35] = test: Induction of cell cycle arrest in human L02 cells assessed as G0/G1 phase accumulation at 26 uM by PI staining based flow cytometry analysis (reference value: 53.77 %); details: l02, 26 µM
L02 [36] = test: Induction of cell cycle arrest in human L02 cells assessed as G0/G1 phase accumulation at 18 uM by PI staining based flow cytometry analysis (reference value: 53.77 %); details: l02, 18 µM
L02 [37] = test: Induction of apoptosis in human L02 cells assessed as late apoptotic cells at 18 uM by annexin-V-FITC/PI staining based flow cytometry analysis (reference value: 0.92 %); assay type: cell-based; details: l02, 18 µM
L02 [38] = test: Induction of cell cycle arrest in human L02 cells assessed as S phase accumulation at 24 uM by PI staining based flow cytometry analysis (reference value: 38.23 %); details: l02, 24 µM
L02 [39] = test: Induction of apoptosis in human L02 cells assessed as early apoptotic cells at 26 uM by annexin-V-FITC/PI staining based flow cytometry analysis (reference value: 3.81 %); assay type: cell-based; details: l02, 26 µM

With `C[C@@H]1O[C@@H](O[C@H]2[C@H](O[C@H]3CC[C@]4(C)[C@H]5CC=C6[C@@H]7CC(C)(C)CC[C@]7(C(=O)O)CC[C@@]6(C)[C@]5(C)CC[C@H]4C3(C)C)OC[C@H](O)[C@@H]2O[C@@H]2O[C@H](CO)[C@@H](O)[C@H](O)[C@H]2O)[C@H](O)[C@H](O)[C@H]1O` the Activity (L02 [1]) was 6.87%, the Activity (L02 [2]) was 56.86% and the Activity (L02 [3]) was 38.34%. The Activity (L02 [4]) was 4.8%, the Activity (L02 [5]) was 47.32% and the Activity (L02 [6]) was “Toxic”. It also gave an Activity (L02 [7]) of 89.3%, a logP [8] of 0.318 and an Activity (L02 [9]) of 2%. For the same molecule, the Activity (L02 [10]) was 50.68%, the Activity (L02 [11]) was 58.57% and the Activity (L02 [12]) was 2.79%. For the same molecule, the Activity (L02 [13]) was 2.91%, the IC50 (L02 [14]) was 7.49 µM and the Activity (L02 [15]) was 33.43%. The Activity (L02 [16]) was 27.9%, the HC50 [17] was 3.6 µM and the Activity (L02 [18]) was 13.4%. For the same molecule, the Activity (L02 [19]) was 8%.

With `C[C@H]1O[C@@H](O[C@@H]2[C@@H](O)[C@@H](CO)O[C@H](O[C@@H]3[C@H](O)[C@@H](O)[C@H](O[C@H]4CC[C@]5(C)[C@H]6CC=C7[C@@H]8CC(C)(C)CC[C@]8(C(=O)O)CC[C@@]7(C)[C@]6(C)CC[C@H]5C4(C)C)O[C@@H]3CO)[C@@H]2O)[C@H](O[C@@H]2OC[C@@H](O)[C@@H](O)[C@@H]2O)[C@@H](O)[C@@H]1O` the Activity (L02 [1]) was 7.62%, the Activity (L02 [2]) was 60.25% and the Activity (L02 [3]) was 35.95%. The Activity (L02 [4]) was 3.8%, the Activity (L02 [20]) was “Toxic” and the Activity (L02 [5]) was 32.14%. For the same molecule, the Activity (L02 [6]) was “Toxic”, the Activity (L02 [7]) was 92.2% and the logP [8] was -0.0114. For the same molecule, the Activity (L02 [9]) was 0.45%, the Activity (L02 [10]) was 67.43% and the Activity (L02 [11]) was 57.44%. For the same molecule, the Activity (L02 [21]) was “Toxic”, the Activity (L02 [12]) was 1.92% and the Activity (L02 [22]) was “Toxic”. For the same molecule, the Activity (L02 [13]) was 7.91%, the IC50 (L02 [14]) was 9.57 µM and the Activity (L02 [15]) was 34.56%. The Activity (L02 [23]) was “Toxic”, the Activity (L02 [16]) was 54.1% and the HC50 [17] was 2.49 µM. The Activity (L02 [24]) was “Toxic”, the Activity (L02 [18]) was 23.4% and the Activity (L02 [19]) was 8%.

With `C[C@@H]1O[C@@H](O[C@H]2[C@H](O[C@H]3CC[C@]4(C)[C@H]5CC=C6[C@@H]7CC(C)(C)CC[C@]7(C(=O)O)CC[C@@]6(C)[C@]5(C)CC[C@H]4C3(C)C)OC[C@H](O)[C@@H]2O)[C@H](O)[C@H](O)[C@H]1O` the Activity (L02 [25]) was 30.6%, the Activity (L02 [26]) was 64% and the Activity (L02 [6]) was “Toxic”. For the same molecule, the Activity (L02 [27]) was 44.08%, the Activity (L02 [28]) was 1.72% and the Activity (L02 [29]) was 8.4%. For the same molecule, the logP [8] was 0.244, the Activity (L02 [30]) was 0.31% and the Activity (L02 [31]) was 4.73%. The Activity (L02 [32]) was 6.93%, the Activity (L02 [33]) was 8.41% and the IC50 (L02 [14]) was 23.1 µM. It also gave an Activity (L02 [34]) of 12.1%, an Activity (L02 [35]) of 51.19% and an Activity (L02 [36]) of 69.09%. The HC50 [17] was 7.46 µM, the Activity (L02 [37]) was 3.82% and the Activity (L02 [38]) was 36.28%. For the same molecule, the Activity (L02 [39]) was 54.9%.
